# Source: article PMC7180948, “New Insights into 4-Anilinoquinazolines as Inhibitors of Cardiac Troponin I–Interacting Kinase (TNNi3K)” (Molecules, 2020)
# Target: T1, cardiac troponin I–interacting kinase (TNNi3K) (Homo sapiens, UniProt Q59H18)
# T1 sequence (Q59H18 1-835): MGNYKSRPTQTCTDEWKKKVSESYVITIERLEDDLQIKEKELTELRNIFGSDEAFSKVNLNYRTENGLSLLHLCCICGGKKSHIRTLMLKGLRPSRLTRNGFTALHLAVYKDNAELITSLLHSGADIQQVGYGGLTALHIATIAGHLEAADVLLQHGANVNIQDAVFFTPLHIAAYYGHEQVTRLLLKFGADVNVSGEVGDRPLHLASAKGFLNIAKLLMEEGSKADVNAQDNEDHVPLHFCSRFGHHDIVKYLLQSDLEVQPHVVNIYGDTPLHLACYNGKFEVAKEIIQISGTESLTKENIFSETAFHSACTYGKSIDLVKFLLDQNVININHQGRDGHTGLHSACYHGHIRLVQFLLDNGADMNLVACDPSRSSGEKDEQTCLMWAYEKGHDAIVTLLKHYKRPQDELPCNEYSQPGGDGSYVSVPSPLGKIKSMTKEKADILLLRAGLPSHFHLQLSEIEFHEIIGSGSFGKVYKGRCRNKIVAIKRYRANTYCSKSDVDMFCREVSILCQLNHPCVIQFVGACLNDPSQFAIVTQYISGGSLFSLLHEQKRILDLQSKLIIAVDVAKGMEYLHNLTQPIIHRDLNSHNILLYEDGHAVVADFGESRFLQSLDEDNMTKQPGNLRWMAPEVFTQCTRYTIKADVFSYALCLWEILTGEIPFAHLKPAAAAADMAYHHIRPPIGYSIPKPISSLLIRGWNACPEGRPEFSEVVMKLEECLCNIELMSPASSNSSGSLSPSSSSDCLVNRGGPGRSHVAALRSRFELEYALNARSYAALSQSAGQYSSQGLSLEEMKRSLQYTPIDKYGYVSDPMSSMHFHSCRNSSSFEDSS
# Test: TNNi3K binding assay (Kd, n = […])
row,Kd [nM],Structure (SMILES)
1,11,"CNS(=O)(=O)c1ccc(N(C)C)c(Nc2ncnc3cc(OC)ccc23)c1 [compound 17, 4-(dimethylamino)-3-((7-methoxyquinazolin-4-yl)amino)-N-methylbenzenesulfonamide]"
2,120,"CNS(=O)(=O)c1cccc(Nc2ncnc3cc(OC)c(OC)cc23)c1 [compound 2, 3-((6,7-dimethoxyquinazolin-4-yl)amino)-N-methylbenzenesulfonamide]"
3,90,"CNS(=O)(=O)c1ccc(N(C)C)c(Nc2ncnc3ccc(OC)cc23)c1 [compound 16, 4-(dimethylamino)-3-((6-methoxyquinazolin-4-yl)amino)-N-methylbenzenesulfonamide]"
4,6200,"COc1cc2ncnc(Nc3ccccc3N(C)C)c2cc1OC [compound 20, N^1-(6,7-dimethoxyquinazolin-4-yl)-N^2,N^2-dimethylbenzene-1,2-diamine]"
